Results from ChEMBL document CHEMBL1201862, “PubChem BioAssay data set” (2004).
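Cultured in 96-well plates, cells were exposed to test compound for 48 hours across five concentrations. GI50 = concentration required for 50% inhibition of growth.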 Activity calls are given as the source filed them. No stated cut-off is given here; in the data, active = GI50 up to about 1.1 µM and inactive = higher.

Tests used:
Assay in all cases: NCI tumour cell line growth inhibition, 48 h
A549 = tested on: A549
COLO 205 = tested on: COLO 205
DU-145 = tested on: DU-145
HCC 2998 = tested on: HCC 2998
IGROV-1 = tested on: IGROV-1
NCI-H460 = tested on: NCI-H460
NCI/ADR-RES = tested on: NCI/ADR-RES
OVCAR-4 = tested on: OVCAR-4
OVCAR-5 = tested on: OVCAR-5
RXF 393 = tested on: RXF 393
SF-295 = tested on: SF-295
SF-539 = tested on: SF-539
SK-MEL-2 = tested on: SK-MEL-2
SN12C = tested on: SN12C
SR = tested on: SR
TK-10 = tested on: TK-10
UACC-257 = tested on: UACC-257
U-251 = tested on: U-251
NCI-H522 = tested on: NCI-H522
SK-OV-3 = tested on: SK-OV-3

Measured: GI50

CC(=O)N1C(Nc2nccs2)CCN1c1ccccc1 (configuration not stated)
inactive: A549 > 10 µM | COLO 205 > 10 µM | DU-145 > 10 µM | HCC 2998 > 10 µM | IGROV-1 > 10 µM | NCI-H460 > 10 µM | NCI/ADR-RES > 10 µM | OVCAR-4 > 10 µM | OVCAR-5 > 10 µM | RXF 393 > 10 µM | SF-295 > 10 µM | SF-539 > 10 µM | SK-MEL-2 > 10 µM | SN12C > 10 µM | SR > 10 µM | TK-10 > 10 µM | UACC-257 > 10 µM

Cc1ccc(S(=NS(=O)(=O)c2ccc(C)cc2)c2ccc(C)cc2)cc1
inactive: A549 62.5 µM | COLO 205 54.7 µM | DU-145 > 100 µM | NCI-H460 > 100 µM | NCI/ADR-RES 38.7 µM | OVCAR-5 > 100 µM | RXF 393 81.8 µM | SF-295 75.7 µM | SF-539 > 100 µM | SN12C > 100 µM | SR 36.9 µM | TK-10 > 100 µM | U-251 57.5 µM | UACC-257 > 100 µM

C/C=C\C(CC(=O)NCCc1c[nH]c2ccccc12)CC(=O)OC (configuration not stated)
inactive: A549 > 100 µM | COLO 205 > 100 µM | DU-145 > 100 µM | HCC 2998 > 100 µM | IGROV-1 > 100 µM | NCI-H460 > 100 µM | NCI-H522 > 100 µM | NCI/ADR-RES > 100 µM | OVCAR-4 > 100 µM | OVCAR-5 > 100 µM | RXF 393 > 100 µM | SF-295 > 100 µM | SK-MEL-2 > 100 µM | SK-OV-3 > 100 µM | TK-10 > 100 µM | U-251 > 100 µM | UACC-257 > 100 µM

C[N+](C)(C)c1ncnc2c1ncn2C1CCCO1 (configuration not stated)
inactive: A549 > 100 µM | COLO 205 > 100 µM | DU-145 > 100 µM | HCC 2998 > 100 µM | IGROV-1 > 100 µM | NCI-H460 > 100 µM | NCI-H522 > 100 µM | NCI/ADR-RES > 100 µM | OVCAR-4 > 100 µM | OVCAR-5 > 100 µM | RXF 393 > 100 µM | SF-295 > 100 µM | SF-539 > 100 µM | SK-MEL-2 > 100 µM | SK-OV-3 > 100 µM | SN12C > 100 µM | TK-10 > 100 µM | U-251 > 100 µM | UACC-257 > 100 µM

CC(C)(C)OC(=O)NCCCCC(N)C(N)=O (configuration not stated)
inactive: A549 > 100 µM | COLO 205 > 100 µM | DU-145 > 100 µM | HCC 2998 > 100 µM | IGROV-1 > 100 µM | NCI-H460 > 100 µM | NCI-H522 > 100 µM | NCI/ADR-RES > 100 µM | OVCAR-4 > 100 µM | OVCAR-5 > 100 µM | RXF 393 > 100 µM | SF-295 > 100 µM | SF-539 > 100 µM | SK-MEL-2 > 100 µM | SK-OV-3 54.7 µM | SN12C > 100 µM | TK-10 > 100 µM | U-251 > 100 µM | UACC-257 > 100 µM

COC(=O)C1=C(CCCCO[Si](C)(C)C(C)(C)C)NC(=O)N2[C@@H](CCOCc3ccccc3)CC[C@H]12
inactive: A549 14.8 µM | COLO 205 18 µM | DU-145 12.8 µM | HCC 2998 24.4 µM | NCI-H460 25.9 µM | NCI-H522 11.1 µM | NCI/ADR-RES 15.3 µM | OVCAR-4 27.5 µM | OVCAR-5 33.1 µM | SF-295 26 µM | SK-MEL-2 16.2 µM | SK-OV-3 45.3 µM | SN12C 16.7 µM | TK-10 40.3 µM | U-251 14.4 µM | UACC-257 21.1 µM

CN1c2ccccc2C(=O)Nc2cnc(Cl)nc21
inactive: A549 > 100 µM | COLO 205 > 100 µM | DU-145 > 100 µM | HCC 2998 > 100 µM | IGROV-1 > 100 µM | NCI-H522 64.6 µM | NCI/ADR-RES 82.6 µM | OVCAR-4 93.1 µM | OVCAR-5 > 100 µM | RXF 393 > 100 µM | SF-295 46.3 µM | SF-539 49.1 µM | SK-MEL-2 > 100 µM | SK-OV-3 > 100 µM | SN12C 66.7 µM | TK-10 > 100 µM | U-251 45.5 µM | UACC-257 > 100 µM

CCOC(=O)C(C)c1nc2cc3cccnc3c(Cl)c2[nH]c1=O (configuration not stated)
inactive: COLO 205 > 100 µM | DU-145 20 µM | HCC 2998 85.3 µM | IGROV-1 52.6 µM | NCI-H460 32.4 µM | NCI/ADR-RES > 100 µM | OVCAR-4 > 100 µM | RXF 393 > 100 µM | SF-295 > 100 µM | SF-539 > 100 µM | SK-MEL-2 86.9 µM | SK-OV-3 > 100 µM | SR 73.6 µM | TK-10 > 100 µM | U-251 > 100 µM | UACC-257 > 100 µM

O=[N+]([O-])c1ccc(C2CC(c3ccccc3Cl)=Nc3ccccc3[S+]2[O-])cc1 (configuration not stated)
inactive: A549 9.64 µM | COLO 205 7.69 µM | DU-145 15.5 µM | HCC 2998 2.92 µM | IGROV-1 2.77 µM | NCI-H460 4.27 µM | NCI-H522 1.15 µM | OVCAR-4 2.31 µM | OVCAR-5 3.71 µM | RXF 393 1.8 µM | SF-295 5.55 µM | SF-539 7.19 µM | SK-MEL-2 15 µM | SK-OV-3 19.8 µM | SN12C 2.26 µM | SR 2.84 µM | TK-10 8.02 µM | U-251 3.05 µM | UACC-257 15.8 µM

CCOC(=O)c1sc2[n+](c1C)C(=O)/C(=C/c1ccc([N+](=O)[O-])cc1)S2
inactive: A549 23.5 µM | COLO 205 30.7 µM | DU-145 31.3 µM | HCC 2998 17.2 µM | NCI-H460 19.7 µM | NCI/ADR-RES 13.8 µM | OVCAR-4 56.5 µM | OVCAR-5 31.7 µM | RXF 393 29.8 µM | SF-295 18.5 µM | SF-539 21.2 µM | SK-MEL-2 20.7 µM | SK-OV-3 23.8 µM | SN12C 36.6 µM | SR 24.3 µM | TK-10 20.6 µM | U-251 17.3 µM | UACC-257 28.1 µM

O=c1c(Cc2ccc(Cl)cc2)nnc2sc(-c3ccc(-c4ccc(F)c(Cl)c4)o3)nn12
inactive: A549 51.3 µM | COLO 205 57.3 µM | DU-145 > 100 µM | HCC 2998 > 100 µM | IGROV-1 72.3 µM | NCI-H460 55 µM | NCI-H522 62.1 µM | NCI/ADR-RES 56.9 µM | OVCAR-4 42.1 µM | OVCAR-5 56.1 µM | RXF 393 > 100 µM | SF-295 88.9 µM | SF-539 > 100 µM | SK-MEL-2 51.4 µM | SK-OV-3 > 100 µM | SN12C 42.7 µM | TK-10 > 100 µM | U-251 99.5 µM | UACC-257 97.3 µM
